Experimental data: ChEMBL document CHEMBL4819019, “Design, synthesis, antibacterial activity and toxicity of novel quaternary ammonium compounds based on pyridoxine and fatty acids” (Eur J Med Chem, 2021)
Activity calls are given as the source filed them. No cut-off for these calls is given here.

Key:
[1] = Cytotoxicity against human skin fibroblasts assessed as cell viability measured after 72 hrs by MTT assay; format: cell-based, Fibroblast
Staphylococcus aureus [2] = experiment: Antibacterial activity against clinical isolate methicillin-resistant Staphylococcus aureus 1065 measured after 24 hrs by broth microdilution method; format: functional
Staphylococcus aureus [3] = experiment: Antibacterial activity against clinical isolate methicillin-resistant Staphylococcus aureus 713 measured after 24 hrs by broth microdilution method; format: functional
[4] = Lipophilicity, logP of the compound; format: physicochemical; details: octanol/water
Pseudomonas aeruginosa [5] = experiment: Antibacterial activity against clinical isolate Pseudomonas aeruginosa 1945 measured after 24 hrs by broth microdilution method; format: functional
Staphylococcus aureus [6] = experiment: Antibacterial activity against clinical isolate methicillin-resistant Staphylococcus aureus 1053 measured after 24 hrs by broth microdilution method; format: functional
Klebsiella sp. = experiment: Antibacterial activity against clinical isolate Klebsiella sp. 11 measured after 24 hrs by broth microdilution method; format: functional
Staphylococcus aureus [7] = experiment: Antibacterial activity against clinical isolate methicillin-resistant Staphylococcus aureus 983 measured after 24 hrs by broth microdilution method; format: functional
Bacillus subtilis = experiment: Antibacterial activity against Bacillus subtilis 168 measured after 24 hrs by broth microdilution method; format: functional
[8] = Acute toxicity in po dosed C57BL/6CBA mouse measured upto 7 days; format: organism-based; details: in vivo, time <=7 day
Escherichia coli [9] = experiment: Antibacterial activity against Escherichia coli assessed as fold increase in MIC after 4 passages by serial dilution method; format: functional, organism-based; details: time 24.0 hrs
Klebsiella pneumoniae = experiment: Antibacterial activity against clinical isolate Klebsiella pneumoniae 1813 measured after 24 hrs by broth microdilution method; format: functional
Moraxella = experiment: Antibacterial activity against clinical isolate Moraxella 765 measured after 24 hrs by broth microdilution method; format: functional
Staphylococcus aureus [10] = experiment: Antibacterial activity against Staphylococcus aureus ATCC 29213 measured after 24 hrs by broth microdilution method; format: functional
Staphylococcus aureus [11] = experiment: Antibacterial activity against clinical isolate methicillin-resistant Staphylococcus aureus 1131 measured after 24 hrs by broth microdilution method; format: functional
Pseudomonas sp. = experiment: Antibacterial activity against clinical isolate Pseudomonas sp. 5 measured after 24 hrs by broth microdilution method; format: functional
Serratia marcescens = experiment: Antibacterial activity against clinical isolate Serratia marcescens 1966 measured after 24 hrs by broth microdilution method; format: functional
Enterococcus faecalis [12] = experiment: Antibacterial activity against clinical isolate Enterococcus faecalis 23 measured after 24 hrs by broth microdilution method; format: functional
Staphylococcus aureus [13] = experiment: Antibacterial activity against clinical isolate Staphylococcus aureus 25 measured after 24 hrs by broth microdilution method; format: functional
[14] = Cytotoxicity against human HEK293 cells assessed as cell viability measured after 72 hrs by MTT assay; format: cell-based
[15] = Cytotoxicity against human mesenchymal stem cells assessed as cell viability measured after 72 hrs by MTT assay; format: cell-based
Escherichia coli [16] = experiment: Antibacterial activity against Escherichia coli MG 1655 measured after 24 hrs by broth microdilution method; format: functional
Enterococcus faecalis [17] = experiment: Antibacterial activity against clinical isolate Enterococcus faecalis 3063 measured after 24 hrs by broth microdilution method; format: functional
Escherichia coli [18] = experiment: Antibacterial activity against clinical isolate Escherichia coli 718 measured after 24 hrs by broth microdilution method; format: functional
Proteus sp. = experiment: Antibacterial activity against clinical isolate Proteus sp. 17 measured after 24 hrs by broth microdilution method; format: functional; details: Proteus sp. (in: enterobacteria)
[19] = test system: Staphylococcus intermedius; experiment: Antibacterial activity against clinical isolate methicillin-resistant Staphylococcus intermedius 1061 measured after 24 hrs by broth microdilution method; format: functional
Staphylococcus aureus [20] = experiment: Antibacterial activity against Staphylococcus aureus assessed as fold increase in MIC after 8 passages by serial dilution method; format: functional, organism-based; details: time 24.0 hrs
Pseudomonas aeruginosa [21] = experiment: Antibacterial activity against Pseudomonas aeruginosa ATCC 27853 measured after 24 hrs by broth microdilution method; format: functional
Acinetobacter sp. = experiment: Antibacterial activity against clinical isolate Acinetobacter sp. 3 measured after 24 hrs by broth microdilution method; format: functional
Micrococcus luteus [22] = experiment: Antibacterial activity against Micrococcus luteus clinical isolate measured after 24 hrs by broth microdilution method; format: functional
[23] = test system: Staphylococcus ureilyticus; experiment: Antibacterial activity against clinical isolate Staphylococcus ureilyticus 1972 measured after 24 hrs by broth microdilution method; format: functional
[24] = test system: Staphylococcus intermedius; experiment: Antibacterial activity against clinical isolate methicillin-resistant Staphylococcus intermedius 1143 measured after 24 hrs by broth microdilution method; format: functional
[25] = Genotoxicity in Salmonella typhimurium TA1537 assessed as number of revertant by Ames spot test relative to solvent control; format: toxicity; details: salmonella enterica subsp. enterica serovar typhimurium
Staphylococcus aureus [26] = experiment: Antibiofilm activity against biofilm-embedded Staphylococcus aureus assessed as reduction in log CFU at 1 to 32 times of MBC measured after 24 hrs by drop plate assay; format: functional, organism-based
Micrococcus luteus [27] = experiment: Antibiofilm activity against biofilm-embedded Micrococcus luteus assessed as reduction in log CFU at 1 to 32 times of MBC measured after 24 hrs by drop plate assay; format: functional, organism-based
Cell membrane [28] = experiment: Induction of cell membrane damage in Escherichia coli assessed as decrease in flourescence measured for 35 mins with 5 min interval by DioC2(3) based flourescence method
[29] = Acute toxicity in topically treated C57BL/6CBA mouse assessed as death measured at 2500 mg/kg treated as single topically measured after 14 days; format: organism-based; details: in vivo, topical_or_ocular, 336 h, time 14 day
[30] = Genotoxicity in Salmonella typhimurium TA1535 assessed as number of revertant by Ames spot test relative to solvent control; format: toxicity; details: salmonella enterica subsp. enterica serovar typhimurium
Escherichia coli [31] = experiment: Antibiofilm activity against biofilm-embedded Escherichia coli assessed as reduction in log CFU at 1 to 32 times of MBC measured after 24 hrs by drop plate assay; format: functional, organism-based
[32] = Acute toxicity in C57BL/6CBA mouse assessed as enlarged spleen at 2000 mg/kg, po after 7 days; format: organism-based; details: in vivo, 168 h, time 7 day
[33] = Antibiofilm activity against biofilm-embedded Staphylococcus aureus/Pseudomonas aeruginosa assessed as reduction in viable cells upto 512 mg/L measured after 24 hrs by drop plate based dual species biofilm assay; format: functional, cell-based; details: dose mg/L <=512, time 24.0 hrs
Pseudomonas aeruginosa [34] = experiment: Antibiofilm activity against biofilm-embedded Pseudomonas aeruginosa assessed as reduction in log CFU at 1 to 32 times of MBC measured after 24 hrs by drop plate assay; format: functional, organism-based
[35] = Genotoxicity in Salmonella typhimurium TA1535/pSK1002 assessed as DNA-damage activity by measuring beta-galactosidase activity at 750 ug/ml measured by SOS-chromotest relative to solvent control; format: toxicity; details: salmonella enterica subsp. enterica serovar typhimurium; dose 750 µg/ml
[36] = Genotoxicity in Salmonella typhimurium TA1535/pSK1002 assessed as DNA-damage activity by measuring beta-galactosidase activity at 75 ug/ml measured by SOS-chromotest relative to solvent control; format: toxicity; details: salmonella enterica subsp. enterica serovar typhimurium; dose 75 µg/ml
[37] = Acute toxicity in topically treated C57BL/6CBA mouse measured upto 14 days; details: in vivo, topical or ocular, time <=14 day
[38] = Acute toxicity in C57BL/6CBA mouse assessed as necropsy measured at 2500 mg/kg treated as single topically measured after 14 days; format: organism-based; details: in vivo, topical_or_ocular, 336 h, time 14 day
[39] = Genotoxicity in Salmonella typhimurium TA98 assessed as number of revertant by Ames spot test relative to solvent control; format: toxicity; details: salmonella enterica subsp. enterica serovar typhimurium
[40] = Acute toxicity in C57BL/6CBA mouse assessed as death at 2000 mg/kg, po after 7 days; format: organism-based; details: in vivo, 168 h, time 7 day
[41] = Genotoxicity in Salmonella typhimurium TA1535/pSK1002 assessed as DNA-damage activity by measuring beta-galactosidase activity at 7.5 ug/ml measured by SOS-chromotest relative to solvent control; format: toxicity; details: salmonella enterica subsp. enterica serovar typhimurium; dose 7.5 µg/ml
Cell membrane [42] = experiment: Induction of cell membrane damage in Staphylococcus aureus assessed as decrease in flourescence measured for 35 mins with 5 min interval by DioC2(3) based flourescence method
[43] = Genotoxicity in Salmonella typhimurium TA100 assessed as number of revertant by Ames spot test relative to solvent control; format: toxicity; details: salmonella enterica subsp. enterica serovar typhimurium
[44] = Acute toxicity in C57BL/6CBA mouse assessed as pale liver at 2000 mg/kg, po after 7 days; format: organism-based; details: in vivo, 168 h, time 7 day
[45] = Genotoxicity in Salmonella typhimurium TA1535/pSK1002 assessed as DNA-damage activity by measuring beta-galactosidase activity at 150 ug/ml measured by SOS-chromotest relative to solvent control; format: toxicity; details: salmonella enterica subsp. enterica serovar typhimurium; dose 150 µg/ml
[46] = Acute toxicity in C57BL/6CBA mouse assessed as pale kidneys at 2000 mg/kg, po after 7 days; format: organism-based; details: in vivo, 168 h, time 7 day
[47] = Genotoxicity in Salmonella typhimurium TA1535/pSK1002 assessed as DNA-damage activity by measuring beta-galactosidase activity at 15 ug/ml measured by SOS-chromotest relative to solvent control; format: toxicity; details: salmonella enterica subsp. enterica serovar typhimurium; dose 15 µg/ml
[48] = Antibiofilm activity against biofilm-embedded Staphylococcus aureus/Escherichia coli assessed as reduction in viable cells upto 512 mg/L measured after 24 hrs by drop plate based dual species biofilm assay; format: functional, cell-based; details: dose mg/L <=512, time 24.0 hrs

CCCCCCCCCCCCCC(=O)NCCC[N+](C)(C)Cc1ccccc1.[Cl-] [MIRAMISTIN]
CC50 at 72 h [1]: 7.21 µg/mL | MIC (Staphylococcus aureus [2]): 32 µg/mL | MIC (Staphylococcus aureus [3]): 64 µg/mL | logP [4]: 2.43 | MIC (Pseudomonas aeruginosa [5]): 64 µg/mL | MIC (Staphylococcus aureus [6]): 32 µg/mL | MIC (Klebsiella sp.): > 64 µg/mL | MIC (Staphylococcus aureus [7]): > 64 µg/mL | MIC (Bacillus subtilis): 4 µg/mL | LD50 at 168 h [8]: 1000 mg/kg | MIC (Escherichia coli [9]): Active | MIC (Klebsiella pneumoniae): 16 µg/mL | MIC (Moraxella): > 64 µg/mL | MIC (Staphylococcus aureus [10]): 2 µg/mL | MIC (Staphylococcus aureus [11]): 32 µg/mL | MIC (Pseudomonas sp.): > 64 µg/mL | MIC (Serratia marcescens): > 64 µg/mL | MIC (Enterococcus faecalis [12]): 4 µg/mL | MIC (Staphylococcus aureus [13]): 16 µg/mL | CC50 at 72 h [14]: 6.08 µg/mL | CC50 at 72 h [15]: 4.16 µg/mL | MIC (Escherichia coli [16]): 8 µg/mL | MIC (Enterococcus faecalis [17]): 16 µg/mL | MIC (Escherichia coli [18]): 64 µg/mL | MIC (Proteus sp.): > 64 µg/mL | MIC [19]: 64 µg/mL | MIC (Staphylococcus aureus [20]): Active | MIC (Pseudomonas aeruginosa [21]): 1 µg/mL | MIC (Acinetobacter sp.): > 64 µg/mL | MIC (Micrococcus luteus [22]): 2 µg/mL | MIC [23]: > 64 µg/mL | MIC [24]: 64 µg/mL

CCCCCCCCCCCC(=O)NCC[N+](C)(C)Cc1cnc(C)c2c1COC(C)(CCC)O2.[Cl-] (stereo not drawn)
CC50 at 72 h [1]: 1.79 µg/mL | MIC (Staphylococcus aureus [2]): 2 µg/mL | Ratio [25]: 0.03 | MIC (Staphylococcus aureus [3]): 4 µg/mL | Activity (Staphylococcus aureus [26]): Active | Activity (Micrococcus luteus [27]): Active | Activity (Cell membrane [28]): Dose-Dependent Effect | logP [4]: 1.35 | MIC (Pseudomonas aeruginosa [5]): 64 µg/mL | MIC (Staphylococcus aureus [6]): 2 µg/mL | MIC (Klebsiella sp.): 16 µg/mL | MIC (Staphylococcus aureus [7]): 16 µg/mL | Activity [29]: Non-Toxic | Ratio [30]: 0.5 | MIC (Bacillus subtilis): 2 µg/mL | Activity (Escherichia coli [31]): Active | LD50 at 168 h [8]: > 2000 mg/kg | Activity (Escherichia coli [9]): Toxic | MIC (Klebsiella pneumoniae): 16 µg/mL | Activity [32]: Toxic | MIC (Moraxella): 16 µg/mL | Activity [33]: inactive | MIC (Staphylococcus aureus [10]): 1 µg/mL | MIC (Staphylococcus aureus [11]): 4 µg/mL | Activity (Pseudomonas aeruginosa [34]): Active | Ratio [35]: 0.3 | MIC (Pseudomonas sp.): 32 µg/mL | Ratio [36]: 0.7 | MIC (Serratia marcescens): 64 µg/mL | LD50 at 336 h [37]: > 2500 mg/kg | Activity [38]: Non-Toxic | Ratio [39]: 1.9 | Activity [40]: Toxic | MIC (Enterococcus faecalis [12]): 2 µg/mL | Ratio [41]: 1.6 | MIC (Staphylococcus aureus [13]): 2 µg/mL | CC50 at 72 h [14]: 0.15 µg/mL | CC50 at 72 h [15]: 1.15 µg/mL | MIC (Escherichia coli [16]): 4 µg/mL | MIC (Enterococcus faecalis [17]): 2 µg/mL | Activity (Cell membrane [42]): Dose-Dependent Effect | MIC (Escherichia coli [18]): 8 µg/mL | MIC (Proteus sp.): > 64 µg/mL | Ratio [43]: 1.1 | MIC [19]: 4 µg/mL | Activity (Staphylococcus aureus [20]): Active | Activity [44]: Toxic | MIC (Pseudomonas aeruginosa [21]): 32 µg/mL | MIC (Acinetobacter sp.): 32 µg/mL | MIC (Micrococcus luteus [22]): 2 µg/mL | Ratio [45]: 0.5 | Activity [46]: Toxic | Ratio [47]: 1.6 | MIC [23]: 64 µg/mL | Activity [48]: inactive | MIC [24]: 4 µg/mL
